Reference: patent publication US8084471B2, “Proteomimetic compounds as inhibitors of the interaction of nuclear receptor with coactivator peptides” (Yale University, priority 2006, dated 2011)
pKd, pKi: −log10 of the molar value. Ends that are not written are not given here.

Legend:
ERα [1] = target: T1, ERα (Homo sapiens, UniProt P03372); assay: Fluorescence polarization assay: displacement of rhodamine-labeled peptide D22 from estradiol-activated ER; type: binding; set-up: purchased Invitrogen; settings: for fluorescence polarization titration curve: FIG. 2; for pKi: ERα 75 nM, 17β-estradiol 2 μM, D22 1 nM; for affinity (in words): FP assay
T1 sequence (P03372 1-595): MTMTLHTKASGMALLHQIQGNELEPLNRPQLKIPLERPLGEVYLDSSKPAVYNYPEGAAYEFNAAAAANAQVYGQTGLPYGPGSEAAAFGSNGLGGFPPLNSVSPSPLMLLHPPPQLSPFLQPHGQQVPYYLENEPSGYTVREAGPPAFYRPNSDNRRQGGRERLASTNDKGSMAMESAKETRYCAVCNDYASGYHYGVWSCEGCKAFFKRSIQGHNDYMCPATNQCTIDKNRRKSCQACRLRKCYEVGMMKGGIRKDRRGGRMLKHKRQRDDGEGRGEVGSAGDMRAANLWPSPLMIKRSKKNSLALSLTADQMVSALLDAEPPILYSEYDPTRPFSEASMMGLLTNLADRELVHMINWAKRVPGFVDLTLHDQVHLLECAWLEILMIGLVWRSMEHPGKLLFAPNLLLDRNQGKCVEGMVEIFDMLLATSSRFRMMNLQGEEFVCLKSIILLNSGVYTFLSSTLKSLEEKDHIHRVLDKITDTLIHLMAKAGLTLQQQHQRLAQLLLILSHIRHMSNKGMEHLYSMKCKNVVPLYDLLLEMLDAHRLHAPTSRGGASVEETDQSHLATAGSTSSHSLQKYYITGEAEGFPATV

ERα [2] = target: T1, ERα; assay: Competitive radioligand assay with [3H]estradiol for the estradiol binding site; set-up: purchased MDS Pharma Services (contract assay); host or cells: Sf9 insect cells; settings: ERα from human recombinant insect Sf9 cells
Protocol: Inhibition of coactivator binding by a small molecule involves either direct competition with the helical peptide for the ER surface or binding of the small molecule to the ligand binding site as an antagonist, deactivating the ER and preventing coactivator recruitment. To rule out the latter mechanism, a competitive radioligand assay with [^3H]estradiol was carried out to specifically measure the affinity of 3 for the estradiol binding site. According to the radioligand assay, 3 binds to this site with an affinity <0.001% the affinity of 17β-estradiol. […] From this it was concluded that the helix mimetics prevent the coactivator association through direct competition for its binding site on the ER surface. […]
Procedure: Ammonium sulfate precipitates of the hER were dissolved in TDEE buffer containing 100 mM KCl, 0.5 mM leupeptin, and 10% glycerol. […] The hER was incubated with a varied concentration of [^3H]estradiol, and the nonspecific binding was measured by a parallel incubation with [^3H]estradiol plus a 300-fold excess of estradiol for 15 h at 4° C. At the completion of the incubation, 50 μL of each mixture was removed and the total [^3H]estradiol concentration determined. […] The hydroxylapatite pellets were suspended in 1 mL of ethanol and counted in 5 mL of scintillation fluid, and the receptor-bound [^3H]estradiol was measured. […]

ERα [3] = target: T1, ERα; set-up: purchased Invitrogen; settings: used to obtain Ki from IC50; D22 at 1 nM; read-out: Kd of the fluorescent peptide; cited from earlier work

CC(C)Cc1cc(-c2c(CC(C)C)cc(O)c(=O)n2CC(C)C)ccn1 [Compound 1, 3-Hydroxy-1,5-diisobutyl-6-(2-isobutyl-4-pyridyl)-1H-pyridin-2-one]
fluorescence polarization titration curve (ERα [1]): slopes rapidly downward
pKi (ERα [1]; Table 1 left column): 4.47
decrease in affinity (ERα [1]; relative to compound 2): 2 fold

CC(C)CCn1c(-c2ccnc(CC(C)C)c2)c(CC(C)C)cc(O)c1=O [Compound 2, 3-Hydroxy-5-isobutyl-6-(2-isobutyl-4-pyridyl)-1-(3-methylbutyl)-1H-pyridin-2-one]
pKi (ERα [1]; standard deviation in brackets): 4.80

CC(C)Cc1cc(-c2c(CC(C)C)cc(O)c(=O)n2CCc2ccccc2)ccn1 [Compound 3, 3-Hydroxy-5-isobutyl-6-(2-isobutyl-4-pyridyl)-1-(2-phenylethyl)-1H-pyridin-2-one]
affinity for the estradiol binding site relative to 17β-estradiol (ERα [2]): < 0.001%
pKi (ERα [1]; standard deviation in brackets): 5.03

CC(C)Cc1cc(-c2c(CC(C)C)cc(O)c(=O)n2CCC(C)(C)C)ccn1 [Compound 4, 3-hydroxy-5-isobutyl-6-(2-isobutyl-4-pyridyl)-1-(3,3-dimethylbutyl)1H-pyridin-2-one]
pKi (ERα [1]; standard deviation in brackets): < 4.30
affinity (in words) (ERα [1]): weak affinity

CC(C)Cc1cc(O)c(=O)n(CCC(C)(C)C)c1-c1ccnc(C(C)(C)C)c1 [Compound 5, 6-(2-tert-Butyl-4-pyridyl)-3-hydroxy-5-isobutyl-1-(3,3-dimethylbutyl)1H-pyridin-2-one]
pKi (ERα [1]; standard deviation in brackets): < 4.30
fluorescence polarization titration curve (ERα [1]): about 0.95
affinity (in words) (ERα [1]): weak affinity

CC(C)Cc1cc(O)c(=O)n(CCc2ccccc2)c1-c1ccnc(Cc2ccccc2)c1 [Compound 6, 6-(2-Benzyl-4-pyridyl)-3-hydroxy-5-isobutyl-1-(2-phenylethyl)-1H-pyridin-2-one]
pKi (ERα [1]; standard deviation in brackets): 5.19

CC(C)Cc1cc(O)c(=O)n(CCc2ccc3ccccc3c2)c1-c1ccnc(Cc2ccccc2)c1 [Compound 7, 6-(2-Benzyl-4-pyridyl)-3-hydroxy-5-isobutyl-1-(2-(2-naphthyl)ethyl)-1H-pyridin-2-one]
pKi (ERα [1]; standard deviation in brackets): 5.38

CLTERHKILHRLLQE [SRC-1 NR II, CLTERHKILHRLLQE, reference compound]
pKi (ERα [1]; standard deviation in brackets): 6.02
pKi (ERα [1]; Table 1 left column): 6.00

Rho-LPYEGSLLLKLLRAPVEEV-COOH [Compound D22, rhodamine-labeled peptide which contains a single LXXLL motif, FP probe]
pKd (ERα [3]): 7.51
